System: HIV-1
Experiment: Resistance test vector (PHENOSENSE) phenotypic susceptibility assay, fold change in IC50, correlated with genotype (Fisher's Exact test, odds ratio)
Assay type: cell-based, human immunodeficiency virus type 1
Conditions: for Odds Ratio: reduced susceptibility (FC>2)
Text: See Petropoulos et al., 2000, Antimicrob. Agents Chemother. 44:920-928; U.S. Pat. Nos. 5,837,464 and 6,242,187. PHENOSENSE™ is a phenotypic assay that achieves the benefits of phenotypic testing and overcomes the drawbacks of previous assays.
PHENOSENSE™ can obtain results with only one round of viral replication, thereby avoiding selection of subpopulations of virus that can occur during preparation of viral stocks required for assays that rely on fully infectious virus.
A resistance test vector (“RTV”) can then be constructed by incorporating the amplified viral gene sequences into a replication defective viral vector by using any method known in the art of incorporating gene sequences into a vector. In one embodiment, restrictions enzymes and conventional cloning methods are used. See Sambrook et al., 2001, Molecular Cloning: A Laboratory Manual, Cold Spring Harbor Laboratory, 3rd ed., NY; and Ausubel et al., 1989, Current Protocols in Molecular Biology, Greene Publishing Associates and Wiley Interscience, NY. In a preferred embodiment, ApaI and PinAI restriction enzymes are used. Preferably, the replication defective viral vector is the indicator gene viral vector (“IGVV”). In a preferred embodiment, the viral vector contains a means for detecting replication of the RTV. Preferably, the viral vector contains a luciferase expression cassette.
The assay can be performed by first co-transfecting host cells with RTV DNA and a plasmid that expresses the envelope proteins of another retrovirus, for example, amphotropic murine leukemia virus (MLV). Following transfection, viral particles can be harvested from the cell culture and used to infect fresh target cells in the presence of varying amounts of anti-viral drug(s). The completion of a single round of viral replication in the fresh target cells can be detected by the means for detecting replication contained in the vector. In a preferred embodiment, the completion of a single round of viral replication results in the production of luciferase. By monitoring the amount of, e.g., luciferase activity in the presence of the varying amounts of antiviral drug(s), a resistance curve can be constructed by plotting luciferase activity versus drug concentration. The susceptibility of an HIV, or population of HIV, can be determined by measuring the concentration of antiviral drug at which the luciferase activity detected is half-maximal. This number, the IC50, provides a standard and convenient measure of drug resistance.
Patient derived segment(s) corresponding to the HIV protease and reverse transcriptase coding regions were amplified by the reverse transcription polymerase chain reaction method (RT PCR) using viral RNA isolated from viral particles present in the plasma or serum of HIV infected individuals as follows. Viral RNA was isolated from the plasma or serum using oligo-dT magnetic beads (Dynal Biotech, Oslo, Norway), followed by washing and elution of viral RNA. The RT PCR protocol was divided into two steps. A retroviral reverse transcriptase (e.g. Moloney MuLV reverse transcriptase (Roche Molecular Systems, Inc., Branchburg, N.J.; Invitrogen, Carlsbad, Calif.), or avian myeloblastosis virus (AMV) reverse transcriptase, (Boehringer Mannheim, Indianapolis, Ind.) was used to copy viral RNA into cDNA. The cDNA was then amplified using a thermostable DNA polymerase (e.g. Taq (Roche Molecular Systems, Inc., Branchburg, N.J.), Tth (Roche Molecular Systems, Inc., Branchburg, N.J.), PRIMEZYME™ (isolated from Thermus brockianus, Biometra, Gottingen, Germany)) or a combination of thermostable polymerases as described for the performance of “long PCR” (Barnes, W.M., 1994, Proc. Natl. Acad. Sci, USA 91, 2216 20) (e.g. Expand High Fidelity PCR System (Taq+Pwo), (Boehringer Mannheim. Indianapolis, Ind.); GENEAMP XL™ PCR kit (Tth+Vent), (Roche Molecular Systems, Inc., Branchburg, N.J.); or […] II®, Clontech, Palo Alto, Calif.)

SMILES: CC(C)CN(C[C@@H](O)[C@H](Cc1ccccc1)NC(=O)O[C@H]1CCOC1)S(=O)(=O)c1ccc(N)cc1 [APV, amprenavir]
- correlation of FC in susceptibility with the FC in susceptibility for DRV (2862 clinical samples, FC relative to wild-type (NL4-3), FIG. 1): tightly correlated
- Odds Ratio (mutation A22V in PR): 4.43
- Odds Ratio (mutation A71I in PR): 1.93
- Odds Ratio (mutation A71V in PR): 1.62
- Odds Ratio (mutation A431I in gag): 21.52
- Odds Ratio (mutation A431V in gag): 3.21
- Odds Ratio (mutation C67F in PR): 9.28
- Odds Ratio (mutation C95F in PR): 4.96
- Odds Ratio (mutation D60E in PR): 1.51
- Odds Ratio (mutation E34Q in PR): 4.54
- Odds Ratio (mutation E35D in PR): 1.27
- Odds Ratio (mutation E35N in PR): 10.13
- Odds Ratio (mutation E428D in gag): 1.94
- Odds Ratio (mutation E467K in gag): 2.39
- Odds Ratio (mutation E468K in gag): 2.98
- Odds Ratio (mutation F53L in PR): 4.91
- Odds Ratio (mutation F53Y in PR): 10.44
- Odds Ratio (mutation F463S in gag): 7.28
- Odds Ratio (mutation F463V in gag): 2.29
- Odds Ratio (mutation F465L in gag): 1.65
- Odds Ratio (mutation F465S in gag): 2.17
- Odds Ratio (mutation G16A in PR): 4.49
- Odds Ratio (mutation G73A in PR): 5.85
- Odds Ratio (mutation G73C in PR): 2.98
- Odds Ratio (mutation G73S in PR): 2.69
- Odds Ratio (mutation G73T in PR): 21.84
- Odds Ratio (mutation H69R in PR): 3.98
- Odds Ratio (mutation H441Q in gag): 3.05
- Odds Ratio (mutation I13V in PR): 1.41
- Odds Ratio (mutation I47V in PR): 98.74
- Odds Ratio (mutation I54A in PR): 7.70
- Odds Ratio (mutation I54L in PR): 8.74
- Odds Ratio (mutation I54M in PR): 32.44
- Odds Ratio (mutation I54V in PR): 2.67
- Odds Ratio (mutation I62V in PR): 1.28
- Odds Ratio (mutation I66F in PR): 4.19
- Odds Ratio (mutation I66V in PR): 4.16
- Odds Ratio (mutation I72L in PR): 3.51
- Odds Ratio (mutation I72V in PR): 1.51
- Odds Ratio (mutation I84V in PR): 58.10
- Odds Ratio (mutation I85V in PR): 3.21
- Odds Ratio (mutation I437V in gag): 3.51
- Odds Ratio (mutation I479T in gag): 1.28
- Odds Ratio (mutation K20R in PR): 2.41
- Odds Ratio (mutation K20T in PR): 1.55
- Odds Ratio (mutation K20V in PR): 4.43
- Odds Ratio (mutation K43T in PR): 7.24
- Odds Ratio (mutation K55R in PR): 4.17
- Odds Ratio (mutation L10F in PR): 3.36
- Odds Ratio (mutation L10I in PR): 1.95
- Odds Ratio (mutation L10V in PR): 1.62
- Odds Ratio (mutation L19P in PR): 6.49
- Odds Ratio (mutation L23I in PR): 4.81
- Odds Ratio (mutation L24F in PR): 11.71
- Odds Ratio (mutation L33F in PR): 12.07
- Odds Ratio (mutation L63P in PR): 1.10
- Odds Ratio (mutation L89I in PR): 2.71
- Odds Ratio (mutation L89M in PR): 1.95
- Odds Ratio (mutation L90M in PR): 1.24
- Odds Ratio (mutation L449F in gag): 1.46
- Odds Ratio (mutation L449V in gag): 9.49
- Odds Ratio (mutation M36I in PR): 1.48
- Odds Ratio (mutation M36L in PR): 1.98
- Odds Ratio (mutation M46I in PR): 2.32
- Odds Ratio (mutation M46L in PR): 2.48
- Odds Ratio (mutation M423I in gag): 2.07
- Odds Ratio (mutation N37D in PR): 1.55
- Odds Ratio (mutation P79A in PR): 18.04
- Odds Ratio (mutation P79S in PR): 9.49
- Odds Ratio (mutation P453I in gag): 4.11
- Odds Ratio (mutation P453V in gag): 9.49
- Odds Ratio (mutation P459T in gag): 2.53
- Odds Ratio (mutation Q58E in PR): 4.49
- Odds Ratio (mutation Q61N in PR): 5.22
- Odds Ratio (mutation Q92K in PR): 7.78
- Odds Ratio (mutation R452K in gag): 2.49
- Odds Ratio (mutation R452S in gag): 2.87
- Odds Ratio (mutation S451T in gag): 1.85
- Odds Ratio (mutation S462N in gag): 2.19
- Odds Ratio (mutation S488A in gag): 1.79
- Odds Ratio (mutation T4A in PR): 9.49
- Odds Ratio (mutation T4P in PR): 4.01
- Odds Ratio (mutation T4S in PR): 8.07
- Odds Ratio (mutation T12P in PR): 2.37
- Odds Ratio (mutation T74P in PR): 27.85
- Odds Ratio (mutation T91S in PR): 11.16
- Odds Ratio (mutation V11I in PR): 23.10
- Odds Ratio (mutation V32I in PR): 62.34
- Odds Ratio (mutation V82A in PR): 1.98
- Odds Ratio (mutation V82C in PR): 9.18
- Odds Ratio (mutation V82F in PR): 11.71
- Odds Ratio (mutation V82I in PR): 2.31
- Odds Ratio (mutation V82L in PR): 6.33
- Odds Ratio (mutation V82T in PR): 3.06
